Data from the supplement of paper PMC10331698.
± gives the standard deviation of the averaged measurements.

Experiments:
Experiment in all cases: level (log10 ratio to DMSO vehicle control); higher = higher biomarker level / cell amount than vehicle control
[1] = compound: FC(F)(F)C(F)(F)CNCC(F)(F)C(F)(F)F [Bis(1H,1H-perfluoropropyl)amine]; details: in DMSO
Procedure: (§1)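 BioMAP Diversity Plus panel of 12 human primary cell co-culture systems (3C, 4H, LPS, SAg, BT, BF4T, BE3C, CASM3C, HDF3CGF, KF3CT, MyoF, Mphg). Compounds were added 1 h before stimulation and left for 24 h (MyoF 48 h; BT 72 h for soluble read-outs or 6 d for IgG). Biomarkers were read by ELISA, cytotoxicity by SRB, PBMC viability and proliferation by Alamar Blue. Each well value was divided by the mean of 8 DMSO control wells on the same plate and log10 transformed; duplicate blinded samples were tested at 4 concentrations.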

[2] = compound: O=S(=O)(O)C(F)(F)C(F)(F)C(F)(F)C(F)(F)C(F)(F)C(F)(F)C(F)(F)C(F)(F)C(F)(F)C(F)(F)F [Sodium perfluorodecanesulfonate]; details: in DMSO
Procedure: as §1

[3] = compound: NC(=O)C(F)(F)C(F)(F)C(F)(F)C(F)F; details: in DMSO
Procedure: as §1

[4] = compound: O=S(=O)(F)C(F)(F)C(F)(F)C(F)(F)C(F)(F)C(F)(F)C(F)(F)C(F)(F)C(F)(F)F [Perfluorooctanesulfonyl fluoride]; details: in DMSO
Procedure: as §1

[5] = compound: FC(F)(F)C(F)(F)C(F)(F)C(F)(F)C(F)(F)C(F)(F)CC1CO1 [3-(Perfluorohexyl)-1,2-epoxypropane]; details: in DMSO
Procedure: as §1

[6] = compound: FC(F)(F)C(F)(F)C(F)(F)CI [Heptafluorobutyl iodide]; details: in DMSO
Procedure: as §1

[7] = compound: COC(=O)C(F)(F)C(F)(F)OC(F)(C(F)(F)F)C(F)(F)OC(F)=C(F)F [Methyl perfluoro(3-(1-ethenyloxypropan-2-yloxy)propanoate)]; details: in DMSO
Procedure: as §1

[8] = compound: C=C(C)C(=O)OCCC(F)(F)C(F)(F)C(F)(F)C(F)(F)C(F)(F)C(F)(F)F [6:2 Fluorotelomer methacrylate]; details: in DMSO
Procedure: as §1

[9] = compound: O=C(O)C=CC(F)(C(F)(F)F)C(F)(F)F [3-(Perfluoroisopropyl)-2-propenoic acid]; details: in DMSO
Procedure: as §1

[10] = compound: NC(=O)C(F)(F)C(F)(F)C(F)(F)C(F)(F)F [Nonafluoropentanamide]; details: in DMSO
Procedure: as §1

[11] = compound: O=C(O)C(F)(F)C(F)(F)C(F)(F)C(F)(F)C(F)(F)C(F)(F)C(F)(F)C(F)(F)C(F)(F)C(F)F [11-H-Perfluoroundecanoic acid]; details: in DMSO
Procedure: as §1

[12] = compound: NS(=O)(=O)C(F)(F)C(F)(F)C(F)(F)C(F)(F)C(F)(F)C(F)(F)F [Perfluorohexanesulfonamide]; details: in DMSO
Procedure: as §1

[13] = compound: C=CC(=O)OCC(F)(F)C(F)(F)C(F)(F)COC(=O)C=C [1H,1H,5H,5H-Perfluoro-1,5-pentanediol diacrylate]; details: 6700 nM; in DMSO
Procedure: as §1

[14] = compound: FC(F)(F)C(F)(F)C(F)(F)C(F)(F)C(F)(F)C(F)(F)C(F)(F)I [1-Iodopentadecafluoroheptane]; details: in DMSO
Procedure: as §1

[15] = compound: FC(F)(F)C(F)(F)C(F)(F)CC1CO1 [1H,1H-Heptafluorobutyl epoxide]; details: in DMSO
Procedure: as §1

[16] = compound: O=S(=O)(Cl)C(F)(F)C(F)(F)C(F)(F)C(F)(F)C(F)(F)C(F)(F)C(F)(F)C(F)(F)F [Perfluoro-1-octanesulfonyl chloride]; details: in DMSO
Procedure: as §1

[17] = compound: OCC(F)(F)C(F)(F)C(F)(F)CO [Hexafluoroamylene glycol]; details: in DMSO
Procedure: as §1

[18] = compound: NC(=O)C(F)(F)C(F)(F)C(F)(F)C(F)(F)C(N)=O [Octafluoroadipamide]; details: in DMSO
Procedure: as §1

[19] = compound: O=S(=O)(O)CCC(F)(F)C(F)(F)C(F)(F)C(F)(F)C(F)(F)C(F)(F)F [6:2 Fluorotelomer sulfonic acid]; details: in DMSO
Procedure: as §1

HDF3CGF:TIMP-2
level (log10) ([1]; 6700 nM): -0.005 ± 0.017 | level (log10) ([1]; 20000 nM): -0.0085 ± 0.033 | level (log10) ([1]; 60000 nM): 0.022 ± 0.0014 | level (log10) ([2]; 1500 nM): -0.026 ± 0.11 | level (log10) ([2]; 4400 nM): 0.0395 ± 0.0035 | level (log10) ([2]; 13000 nM): 0.005 ± 0.052 | level (log10) ([2]; 40000 nM): -0.085 ± 0.089 | level (log10) ([3]; 6700 nM): 0.015 ± 0.025 | level (log10) ([3]; 20000 nM): 0.027 ± 0.033 | level (log10) ([3]; 60000 nM): 0.003 ± 0.0028 | level (log10) ([4]; 6700 nM): -0.0005 ± 0.011 | level (log10) ([4]; 20000 nM): 0.0185 ± 0.012 | level (log10) ([4]; 60000 nM): -0.0085 ± 0.042 | level (log10) ([5]; 6700 nM): 0.0235 ± 0.012 | level (log10) ([5]; 20000 nM): 0.0065 ± 0.00071 | level (log10) ([5]; 60000 nM): -0.006 ± 0.02 | level (log10) ([6]; 6700 nM): -0.033 ± 0.0042 | level (log10) ([6]; 20000 nM): -0.044 ± 0.0071 | level (log10) ([6]; 60000 nM): -0.013 ± 0.051 | level (log10) ([7]; 6700 nM): -0.043 ± 0.0028 | level (log10) ([7]; 20000 nM): -0.051 ± 0.028 | level (log10) ([8]; 6700 nM): 0.0065 ± 0.087 | level (log10) ([8]; 20000 nM): 0.018 ± 0.085 | level (log10) ([8]; 60000 nM): 0.022 ± 0.082 | level (log10) ([9]; 6700 nM): -0.0105 ± 0.0021 | level (log10) ([9]; 20000 nM): -0.0045 ± 0.011 | level (log10) ([9]; 60000 nM): -0.0115 ± 0.012 | level (log10) ([10]; 6700 nM): -0.0315 ± 0.016 | level (log10) ([10]; 20000 nM): 0.0165 ± 0.06 | level (log10) ([10]; 60000 nM): 0.0025 ± 0.091 | level (log10) ([11]; 6700 nM): -0.0675 ± 0.046 | level (log10) ([11]; 20000 nM): -0.103 ± 0.025 | level (log10) ([12]; 6700 nM): 0.012 ± 0.023 | level (log10) ([12]; 20000 nM): 0.0005 ± 0.0021 | level (log10) ([12]; 60000 nM): -0.157 ± 0.0057 | level (log10) [13]: 0.0805 ± 0.016 | level (log10) ([14]; 6700 nM): 0.015 ± 0.0057 | level (log10) ([14]; 20000 nM): 0.0035 ± 0.0035 | level (log10) ([15]; 6700 nM): -0.0395 ± 0.16 | level (log10) ([15]; 20000 nM): -0.061 ± 0.11 | level (log10) ([15]; 60000 nM): -0.038 ± 0.1 | level (log10) ([16]; 6700 nM): -0.002 ± 0.048 | level (log10) ([16]; 20000 nM): -0.0185 ± 0.013 | level (log10) ([16]; 60000 nM): -0.0205 ± 0.0021 | level (log10) ([17]; 6700 nM): -0.0205 ± 0.029 | level (log10) ([17]; 20000 nM): -0.024 ± 0.014 | level (log10) ([17]; 60000 nM): 0.0025 ± 0.032 | level (log10) ([18]; 6700 nM): -0.0695 ± 0.13 | level (log10) ([18]; 20000 nM): -0.035 ± 0.061 | level (log10) ([18]; 60000 nM): -0.002 ± 0.013 | level (log10) ([19]; 6700 nM): -0.021 ± 0.0099 | level (log10) ([19]; 20000 nM): -0.0205 ± 0.032 | level (log10) ([19]; 60000 nM): 0.0245 ± 0.029

BT:sTNF-alpha
level (log10) ([1]; 6700 nM): 0.046 ± 0.05 | level (log10) ([1]; 20000 nM): 0.0265 ± 0.21 | level (log10) ([1]; 60000 nM): 0.0915 ± 0.12 | level (log10) ([2]; 1500 nM): -0.018 ± 0.13 | level (log10) ([2]; 4400 nM): 0.005 ± 0.067 | level (log10) ([2]; 13000 nM): -0.0135 ± 0.0064 | level (log10) ([2]; 40000 nM): 0.0075 ± 0.21 | level (log10) ([3]; 6700 nM): 0.0475 ± 0.19 | level (log10) ([3]; 20000 nM): -0.0695 ± 0.0035 | level (log10) ([3]; 60000 nM): -0.0215 ± 0.047 | level (log10) ([4]; 6700 nM): 0.0075 ± 0.044 | level (log10) ([4]; 20000 nM): -0.0215 ± 0.0092 | level (log10) ([4]; 60000 nM): -0.041 ± 0.15 | level (log10) ([5]; 6700 nM): 0.013 ± 0.11 | level (log10) ([5]; 20000 nM): 0.128 ± 0.0064 | level (log10) ([5]; 60000 nM): 0.0765 ± 0.14 | level (log10) ([6]; 6700 nM): -0.035 ± 0.22 | level (log10) ([6]; 20000 nM): 0.149 ± 0.096 | level (log10) ([6]; 60000 nM): 0.0905 ± 0.069 | level (log10) ([7]; 6700 nM): -0.0085 ± 0.018 | level (log10) ([7]; 20000 nM): 0.0935 ± 0.032 | level (log10) ([8]; 6700 nM): -0.0045 ± 0.0035 | level (log10) ([8]; 20000 nM): 0.0045 ± 0.012 | level (log10) ([8]; 60000 nM): -0.068 ± 0.058 | level (log10) ([9]; 6700 nM): -0.0275 ± 0.04 | level (log10) ([9]; 20000 nM): -0.149 ± 0.1 | level (log10) ([9]; 60000 nM): -0.028 ± 0.03 | level (log10) ([10]; 6700 nM): 0.089 ± 0.086 | level (log10) ([10]; 20000 nM): 0.031 ± 0.069 | level (log10) ([10]; 60000 nM): 0.0565 ± 0.04 | level (log10) ([11]; 6700 nM): 0.016 ± 0.059 | level (log10) ([11]; 20000 nM): -0.051 ± 0.024 | level (log10) ([12]; 6700 nM): -0.013 ± 0.12 | level (log10) ([12]; 20000 nM): -0.027 ± 0.065 | level (log10) ([12]; 60000 nM): 0.068 ± 0.09 | level (log10) [13]: -0.94 ± 0.21 | level (log10) ([14]; 6700 nM): -0.051 ± 0.018 | level (log10) ([14]; 20000 nM): 0.093 ± 0.17 | level (log10) ([15]; 6700 nM): -0.042 ± 0.12 | level (log10) ([15]; 20000 nM): -0.038 ± 0.02 | level (log10) ([15]; 60000 nM): -0.123 ± 0.19 | level (log10) ([16]; 6700 nM): 0.067 ± 0.042 | level (log10) ([16]; 20000 nM): 0.126 ± 0.016 | level (log10) ([16]; 60000 nM): 0.102 ± 0.16 | level (log10) ([17]; 6700 nM): 0.0165 ± 0.037 | level (log10) ([17]; 20000 nM): 0.0085 ± 0.022 | level (log10) ([17]; 60000 nM): 0.0215 ± 0.064 | level (log10) ([18]; 6700 nM): 0.058 ± 0.23 | level (log10) ([18]; 20000 nM): 0.116 ± 0.098 | level (log10) ([18]; 60000 nM): 0.194 ± 0.077 | level (log10) ([19]; 6700 nM): -0.011 ± 0.031 | level (log10) ([19]; 20000 nM): 0.0335 ± 0.07 | level (log10) ([19]; 60000 nM): -0.021 ± 0.04
